In patent US10344019B2 (priority 2010, dated 2019):
Read-outs that look alike come from different tables or passages of the source.

Columns and labels:
Type in all cases: cell-based
[1] = system: HCV 1a RLuc cells (dicistronic genotype 1a H77 replicon, RLuc reporter); experiment: microbe, parasite or virus in culture; conditions: Hepatitis C virus, read-out: 1a
Method in brief: (§1)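 Replicons used: genotype 1b Con1, 1a H77, 2a JFH-1, and a 2a JFH-1 chimera with J6-strain NS5A (M31 present), all dicistronic.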

[2] = system: HCV 1b RLuc cells (dicistronic genotype 1b Con1 replicon, RLuc reporter); experiment: microbe, parasite or virus in culture; conditions: Hepatitis C virus, read-out: 1b (nM)
Method in brief: as §1

[3] = system: HCV 2a JFH-1 Rluc cells (dicistronic genotype 2a JFH-1 replicon, RLuc reporter); experiment: microbe, parasite or virus in culture; conditions: Hepatitis C virus, read-out: 2a JFH
Method in brief: as §1

[4] = system: HCV 2b Rluc cells (NS5A chimeric genotype 2a JFH-1 replicon with genotype 2b MD2b-1 NS5A gene, M31 present); experiment: microbe, parasite or virus in culture; conditions: Hepatitis C virus, read-out: 2b
Method in brief: (§2)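 Replicon cells stably carrying the listed RLuc-encoding dicistronic replicons were seeded and treated with DMSO serial dilutions of compound (10 mM stocks) diluted into culture medium. After 72 h, cells were lysed and Renilla luciferase activity measured. EC50 was derived by non-linear regression.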

[5] = system: HCV 3a RLuc cells (NS5A chimeric genotype 1b Con1 replicon with consensus genotype 3a NS5A gene); experiment: microbe, parasite or virus in culture; conditions: Hepatitis C virus
Method in brief: as §2

[6] = system: HCV 4a Rluc cells (NS5A chimeric genotype 1b Con1 replicon with genotype 4a NS5A gene); experiment: microbe, parasite or virus in culture; conditions: Hepatitis C virus, read-out: 4a
Method in brief: as §2

[7] = system: HCV 2a Rluc cells (NS5A chimeric genotype 2a JFH-1 replicon with genotype 2a J6 strain NS5A gene, M31 present); experiment: HCV replicon reporter assay, genotype 2a J6 (M31 present); conditions: Hepatitis C virus, read-out: 2a J6
Method in brief: as §1

[8] = read-out: 3a, genotype 3a replicon
[9] = genotype 2a JFH-1 RLuc replicon
[10] = read-out: 3a, genotype 3a NS5A chimeric replicon
[11] = genotype 1a H77 replicon, RLuc reporter
[12] = genotype 2a JFH-1 replicon, RLuc reporter
[13] = read-out: 3a, genotype 3a NS5A chimeric 1b Con1 replicon

SMILES | EC50 ([1]; genotype 1a replicon) | EC50 [2] | EC50 ([3]; genotype 2a JFH-1 replicon) | EC50 [4] | EC50 [5, 8] | EC50 [6] | EC50 [7] | EC50 ([1]; genotype 1a H77 RLuc replicon) | EC50 [3, 9] | EC50 [5, 10] | EC50 [1, 11] | EC50 [3, 12] | EC50 [5, 13] | EC50 ([1]; 72 h, Table 1, genotype 1a H77 replicon, 72 hours) | EC50 ([2]; 72 h) | EC50 ([3]; 72 h, Table 1, genotype 2a JFH-1 replicon, 72 hours) | EC50 ([5]; read-out: 3a, Table 1, genotype 3a NS5A chimeric replicon)
COC(=O)N[C@H](C(=O)N1CCC[C@H]1c1nc2ccc3cc(-c4ccc(-c5cnc([C@@H]6CCCN6C(=O)[C@H](NC(=O)OC)c6ccccc6)[nH]5)cc4C#Cc4ccccc4)ccc3c2[nH]1)C(C)C [Example 439] | 0.001 to 0.999 nM | 0.004 nM | 0.001 to 0.999 nM | > 44 nM | 0.001 to 0.99 nM | 0.001 to 0.99 nM | 1 to 44 nM | – | – | – | – | – | – | – | – | – | –
COC[C@H]1C[C@@H](c2ncc(-c3ccc(-c4ccc5c(ccc6nc([C@@H]7C[C@H](COC)CN7C(=O)[C@@H](NC(=O)OC)C(C)C)[nH]c65)c4)cc3)[nH]2)N(C(=O)[C@@H](NC(=O)OC)C(C)C)C1 [Example 440] | 0.001 to 0.999 nM | 0.048 nM | 0.001 to 0.999 nM | 1 to 44 nM | 1 to 4.99 nM | 0.001 to 0.99 nM | 0.001 to 0.999 nM | – | – | – | – | – | – | – | – | – | –
COC(=O)N[C@H](C(=O)N1CCC[C@H]1c1nc2ccc3cc(-c4ccc5c(ccc6nc([C@@H]7C[C@H](COC(F)F)CN7C(=O)[C@H](NC(=O)C7CC7)c7ccccc7)[nH]c65)c4)ccc3c2[nH]1)C(C)C [Example 547] | – | 0.005 nM | – | 0.001 to 0.999 nM | – | 0.001 to 0.99 nM | 0.001 to 0.999 nM | 0.001 to 0.999 nM | 0.001 to 0.999 nM | 0.001 to 0.99 nM | – | – | – | – | – | – | –
COC(=O)N[C@H](C(=O)N1C[C@@H](OC)C[C@H]1c1ncc(-c2ccc(-c3ccc4cc(-c5cnc([C@@H]6CCCN6C(=O)[C@H](NC(=O)OC)c6ccccc6)[nH]5)ccc4c3)cc2)[nH]1)C(C)C [Example 123] | – | 0.014 nM | – | > 44 nM | – | 0.001 to 0.99 nM | > 44 nM | – | – | – | 0.001 to 0.999 nM | 0.001 to 0.999 nM | 0.001 to 0.99 nM | – | – | – | –
O=C(N[C@@H](C(=O)N1CCC[C@H]1c1ncc(-c2cc3c4c(c2)OCc2cc(-c5cnc([C@@H]6CCCN6C(=O)[C@H](NC(=O)c6cccnc6)c6ccccc6)[nH]5)cc(c2-4)OC3)[nH]1)c1ccccc1)c1cccnc1 [Example 469] | 0.001 to 0.999 nM | 0.752 nM | 0.001 to 0.999 nM | 0.001 to 0.999 nM | 0.001 to 0.99 nM | 0.001 to 0.99 nM | 0.001 to 0.999 nM | – | – | – | – | – | – | – | – | – | –
COC[C@H]1C[C@@H](c2ncc(-c3ccc(-c4ccc5c(ccc6nc([C@@H]7CCCN7C(=O)[C@@H](NC(=O)OC)C(C)C)[nH]c65)c4)cc3)[nH]2)N(C(=O)[C@H](NC(=O)C2CC2)c2ccccc2)C1 [Example 456] | 0.001 to 0.999 nM | 0.04 nM | 0.001 to 0.999 nM | 0.001 to 0.999 nM | 0.001 to 0.99 nM | 0.001 to 0.99 nM | 0.001 to 0.999 nM | – | – | – | – | – | – | – | – | – | –
CCCC(=O)N[C@@H](C(=O)N1CCC[C@H]1c1ncc(-c2cc3c4c(c2)OCc2cc(-c5cnc([C@@H]6CCCN6C(=O)[C@H](NC(=O)CCC)c6ccccc6)[nH]5)cc(c2-4)OC3)[nH]1)c1ccccc1 [Example 470] | 0.001 to 0.999 nM | 0.148 nM | 0.001 to 0.999 nM | 0.001 to 0.999 nM | 0.001 to 0.99 nM | 0.001 to 0.99 nM | 0.001 to 0.999 nM | – | – | – | – | – | – | – | – | – | –
CC#Cc1cc(-c2cnc([C@@H]3CCCN3C(=O)[C@@H](NC(=O)OC)C(C)C)[nH]2)ccc1-c1ccc2c(ccc3nc([C@@H]4C[C@H](COC)CN4C(=O)[C@H](NC(=O)OC)c4ccccc4)[nH]c32)c1 [Example 549] | – | 0.007 nM | – | 0.001 to 0.999 nM | – | 0.001 to 0.99 nM | 0.001 to 0.999 nM | 0.001 to 0.999 nM | 0.001 to 0.999 nM | 0.001 to 0.99 nM | – | – | – | – | – | – | –
COC(=O)N[C@H](C(=O)N1CCC[C@H]1c1ncc(-c2ccc3c4c(ccc3c2)-c2ccc(-c3cnc([C@@H]5CCCN5C(=O)[C@H](NC(=O)OC)c5ccccc5)[nH]3)cc2CO4)[nH]1)C1CCOCC1 [Example 13] | – | – | – | 0.001 to 0.999 nM | – | 0.001 to 0.99 nM | 1 to 44 nM | – | – | – | – | – | – | 0.001 to 0.999 nM | 0.015 nM | 0.001 to 0.999 nM | 0.001 to 0.99 nM
COC(=O)N[C@H](C(=O)N1CCC[C@H]1c1ncc(-c2ccc3cc(-c4ccc5c(ccc6nc([C@@H]7CCCN7C(=O)[C@H](NC(=O)OC)c7ccccc7)[nH]c65)c4)ccc3c2)[nH]1)C(C)C [Example 169] | – | 0.006 nM | – | > 44 nM | – | 0.001 to 0.99 nM | > 44 nM | – | – | – | 0.001 to 0.999 nM | 0.001 to 0.999 nM | 0.001 to 0.99 nM | – | – | – | –
COC(=O)N[C@H](C(=O)N1[C@@H]2CC[C@@H](C2)[C@H]1c1nc2ccc3cc(-c4ccc5c(ccc6nc([C@@H]7CCCN7C(=O)[C@H](NC(=O)N7CCOCC7)c7ccccc7)[nH]c65)c4)ccc3c2[nH]1)C(C)C [Example 358] | 0.001 to 0.999 nM | 0.057 nM | 0.001 to 0.999 nM | 0.001 to 0.999 nM | 0.001 to 0.99 nM | 0.001 to 0.99 nM | 0.001 to 0.999 nM | – | – | – | – | – | – | – | – | – | –
CC[C@H](C)[C@H](NC(=O)OC)C(=O)N1CCC[C@H]1c1nc2ccc3cc(-c4ccc5c(ccc6nc([C@@H]7C[C@H](COC)CN7C(=O)[C@H](NC(=O)OC)c7ccccc7)[nH]c65)c4)ccc3c2[nH]1 [Example 509] | – | 0.028 nM | – | 0.001 to 0.999 nM | – | 0.001 to 0.99 nM | 0.001 to 0.999 nM | 0.001 to 0.999 nM | 0.001 to 0.999 nM | 0.001 to 0.99 nM | – | – | – | – | – | – | –
COC(=O)N[C@H](C(=O)N1C[C@@H](C)C[C@H]1c1ncc(-c2cc3c4c(c2)OCc2cc(-c5cnc([C@@H]6C[C@H](C)CN6C(=O)[C@H](NC(=O)OC)c6ccccc6)[nH]5)cc(c2-4)OC3)[nH]1)C(C)C [Example 564] | – | 0.012 nM | – | 0.001 to 0.999 nM | – | 0.001 to 0.99 nM | 1 to 44 nM | 0.001 to 0.999 nM | 0.001 to 0.999 nM | 0.001 to 0.99 nM | – | – | – | – | – | – | –
COC(=O)N[C@@H](C(=O)N1C[C@@H](C)C[C@H]1c1ncc(-c2cc3c4c(c2)OCc2cc(-c5cnc([C@@H]6C[C@H](C)CN6C(=O)[C@H](NC(=O)OC)c6ccccc6)[nH]5)cc(c2-4)OC3)[nH]1)c1ccccc1 [Example 505] | – | 0.019 nM | – | 0.001 to 0.999 nM | – | 0.001 to 0.99 nM | 0.001 to 0.999 nM | 0.001 to 0.999 nM | 0.001 to 0.999 nM | 0.001 to 0.99 nM | – | – | – | – | – | – | –
CCC(=O)N[C@@H](C(=O)N1CCC[C@H]1c1ncc(-c2ccc(-c3ccc4c(ccc5nc([C@@H]6C[C@H](COC)CN6C(=O)[C@@H](NC(=O)OC)C(C)C)[nH]c54)c3)cc2)[nH]1)c1ccccc1 [Example 479] | 0.001 to 0.999 nM | 0.034 nM | 0.001 to 0.999 nM | 0.001 to 0.999 nM | 0.001 to 0.99 nM | 0.001 to 0.99 nM | 0.001 to 0.999 nM | – | – | – | – | – | – | – | – | – | –
COC[C@H]1C[C@@H](c2ncc(-c3ccc(-c4ccc(-c5cnc([C@@H]6CC[C@H](C)N6C(=O)[C@@H](NC(=O)OC)C(C)C)[nH]5)cc4)cc3)[nH]2)N(C(=O)[C@H](NC(=O)C2CC2)c2ccccc2)C1 [Example 591] | – | 0.016 nM | – | 0.001 to 0.999 nM | – | 0.001 to 0.99 nM | 0.001 to 0.999 nM | 0.001 to 0.999 nM | 0.001 to 0.999 nM | 0.001 to 0.99 nM | – | – | – | – | – | – | –
